In patent US5068247A, “2-aminopentanoic acid compounds and their use as immunosuppressants” (priority 1989, dated 1991):

How the values were obtained:
[1] = system: IL-2 production in mouse allogenic MLC; test: suppression of IL-2 production in mouse allogenic MLC; type: cell-based
Experimental: (§1) Mouse allogenic MLC was carried out as follows:
(§2) After termination of culture, the supernatant was collected and used as the supernatant of mouse allogenic MLC.
The IL-2 and IL-3 activities in the supernatant of mouse allogenic MLC were assayed in the same way as in Experiment Example 4.

[2] = system: IL-3 production in mouse allogenic MLC; test: suppression of IL-3 production in mouse allogenic MLC; type: cell-based
Experimental: as §1, §2

[3] = system: allo-reactive cytotoxic T cells in spleen of EL4-immunized BALB/c mice; test: suppression of allo-reactive cytotoxic T cells induced by immunization of mouse with allogenic cells; type: in vivo
Experimental: Male 5- to 7-week-old BALB/c mice (H-2^d) were immunized with leukemia cell EL4 derived from C57BL/6 mice (H-2^b) (10^7 cells/mouse, intraperitoneal administration), and the test substance was administered intraperitoneally 5 times at the doses of 0.001 to 3 mg/kg/day or orally at the doses of 0.3 to 10 mg/kg/day from the day of immunization. Nine to ten days after immunization, the spleen was resected from the mice to prepare a single cell suspension and the suspension was used as effector cell suspension. The ^51 Cr-release assay was carried out in the same way as in Experiment Example 3, using EL4 cells as the target cells to measure the cytotoxic activity.
The activity of allo-reactive cytotoxic T cell is indicated by lytic unit (LU) per spleen. One lytic unit (LU) is defined as the number of effector cells required to cause 25% lysis of 5×10^3 target cells. At the same time, the body weight of mouse and number of spleen cells were also determined.

[4] = Mus musculus, 48 h, 0.0001 μg/ml
[5] = Mus musculus, 48 h, 0.001 μg/ml
[6] = 0.001 mg/kg/day ip × 5, Table 9C
[7] = 0.001 mg/kg/day po × 5, Table 9D
[8] = 0.003 mg/kg/day ip × 5, Table 9C
[9] = 0.003 mg/kg/day po × 5, Table 9D
[10] = 0.003 mg/kg/day po × 10, Table 9E
[11] = 0.01 mg/kg/day ip × 5, Table 9C
[12] = 0.01 mg/kg/day po × 5, Table 9D
[13] = 0.01 mg/kg/day po × 10, Table 9E
[14] = 0.03 mg/kg/day ip × 5, Table 9C
[15] = 0.03 mg/kg/day po × 5, Table 9D
[16] = 0.03 mg/kg/day po × 10, Table 9E

Compound: CCCCCCCCCCCCC/C=C/C[C@@H](O)[C@H](O)[C@@](N)(CO)C(=O)O [Example 5]
- IL-2 activity ([1]; 0.0001 μg/ml): 3.2 U/ml
- IL-2 activity ([1]; 0.001 μg/ml): 2.9 U/ml
- IL-2 activity ([1]; 0.01 μg/ml): < 1.0 U/ml
- IL-2 activity ([1]; 0.1 μg/ml): < 1.0 U/ml
- IL-2 activity ([1]; 1 μg/ml): < 1.0 U/ml
- inhibition at 0.0001 µg/mL [1, 4]: 28.9%
- inhibition at 0.001 µg/mL [1, 5]: 35.6%
- inhibition at 0.01 µg/mL ([1]; Mus musculus, 48 h, 0.01 μg/ml): 100%
- inhibition at 0.1 µg/mL ([1]; Mus musculus, 48 h, 0.1 μg/ml): 100%
- inhibition at 1 µg/mL ([1]; Mus musculus, 48 h, 1 μg/ml): 100%
- IL-3 activity ([2]; 0.0001 μg/ml): 32.7 U/ml
- IL-3 activity ([2]; 0.001 μg/ml): 19.2 U/ml
- IL-3 activity ([2]; 0.01 μg/ml): 11.5 U/ml
- IL-3 activity ([2]; 0.1 μg/ml): 7.9 U/ml
- IL-3 activity ([2]; 1 μg/ml): 7.9 U/ml
- inhibition at 0.0001 µg/mL [2, 4]: 42.1%
- inhibition at 0.001 µg/mL [2, 5]: 76.5%
- inhibition at 0.01 µg/mL ([2]; Mus musculus, 48 h, 0.01 μg/ml): 96.2%
- inhibition at 0.1 µg/mL ([2]; Mus musculus, 48 h, 0.1 μg/ml): 100%
- inhibition at 1 µg/mL ([2]; Mus musculus, 48 h, 1 μg/ml): 100%
- Body weight 9 days after immunization [3, 6]: 23.6 ± 1.1 g
- Cytotoxic T cell activity [3, 6]: 589 ± 415 LU/spleen
- Cytotoxic T cell activity, suppression [3, 6]: 49.7%
- Number of spleen cells [3, 6]: 1.8 ± 0.2 × 10^8 cell
- Body weight 10 days after immunization [3, 7]: 24.5 ± 1.7 g
- Cytotoxic T cell activity [3, 7]: 1929 ± 630 LU/spleen
- Cytotoxic T cell activity, suppression [3, 7]: 0%
- Number of spleen cells [3, 7]: 1.5 ± 0.2 × 10^8
- Body weight 9 days after immunization [3, 8]: 22.8 ± 1.6 g
- Cytotoxic T cell activity [3, 8]: 473 ± 265 LU/spleen
- Cytotoxic T cell activity, suppression [3, 8]: 59.6%
- Number of spleen cells [3, 8]: 1.8 ± 0.2 × 10^8 cell
- Body weight 10 days after immunization [3, 9]: 24.6 ± 1.1 g
- Cytotoxic T cell activity [3, 9]: 1069 ± 400 LU/spleen
- Cytotoxic T cell activity, suppression [3, 9]: 30.2%
- Number of spleen cells [3, 9]: 1.6 ± 0.3 × 10^8
- Body weight 10 days after immunization [3, 10]: 25.0 ± 0.7 g
- Cytotoxic T cell activity [3, 10]: 1936 ± 840 LU/spleen
- Cytotoxic T cell activity, suppression [3, 10]: 30.5%
- Number of spleen cells [3, 10]: 1.3 ± 0.3 × 10^8
- Body weight 9 days after immunization [3, 11]: 24.4 ± 1.1 g
- Cytotoxic T cell activity [3, 11]: 443 ± 141 LU/spleen
- Cytotoxic T cell activity, suppression [3, 11]: 62.1%
- Number of spleen cells [3, 11]: 2.2 ± 0.3 × 10^8 cell
- Body weight 10 days after immunization [3, 12]: 25.8 ± 1.3 g
- Cytotoxic T cell activity [3, 12]: 709 ± 189 LU/spleen
- Cytotoxic T cell activity, suppression [3, 12]: 53.7%
- Number of spleen cells [3, 12]: 1.6 ± 0.3 × 10^8
- Body weight 10 days after immunization [3, 13]: 25.2 ± 1.3 g
- Cytotoxic T cell activity [3, 13]: 996 ± 279 LU/spleen
- Cytotoxic T cell activity, suppression [3, 13]: 64.2%
- Number of spleen cells [3, 13]: 1.4 ± 0.2 × 10^8
- Body weight 9 days after immunization [3, 14]: 24.0 ± 2.2 g
- Cytotoxic T cell activity [3, 14]: 352 ± 148 LU/spleen
- Cytotoxic T cell activity, suppression [3, 14]: 69.9%
- Number of spleen cells [3, 14]: 2.1 ± 0.5 × 10^8 cell
- Body weight 10 days after immunization [3, 15]: 25.0 ± 1.2 g
- Cytotoxic T cell activity [3, 15]: 684 ± 181 LU/spleen
- Cytotoxic T cell activity, suppression [3, 15]: 55.3%
- Number of spleen cells [3, 15]: 1.6 ± 0.3 × 10^8
- Body weight 10 days after immunization [3, 16]: 24.2 ± 1.3 g
- Cytotoxic T cell activity [3, 16]: 799 ± 304 LU/spleen
